Measurements reported in patent US20160193206A1, “BET-PROTEIN-INHIBITING DIHYDROPYRIDOPYRAZINONES” (BAYER PHARMA AKTIENGESELLSCHAFT, priority 2012, published 2016).

How the values were obtained:
[1] = tested on: MOLM-13 cell line; assay: MOLM-13 cell proliferation assay (alamarBlue); format: cell-based; settings: Homo sapiens, inhibition of proliferation of MOLM-13 cells (acute myeloid leukaemia), 96 hours incubation
Experimental: In accordance with the invention, the substances were tested for their ability to inhibit the proliferation of the MOLM-13 cell linie (Deutsche Sammlung für Mikroorganismen und Zellkulturen [German Collection of Microorganisms and Cell Cultures], ACC 554; acute myeloid leukaemia). Cell viability was determined by means of the alamarBlue® reagent (Invitrogen) in a Victor X3 Multilabel Reader (Perkin Elmer). The excitation wavelength was 530 nm and the emission wavelength […].
The MOLM-13 cells were sown at a density of 4000 cells/well in 100 μl of growth medium on 96-well microtitre plates. After overnight incubation at 37° C., the fluorescence values were determined (CI values). The plates were then treated with various substance dilutions and incubated at 37° C. for 96 hours. Subsequently, the fluorescence values were determined (CO values). For the data analysis, the CI values were subtracted from the CO values and the results were compared between cells which had been treated with various dilutions of the substance or only with buffer solution. The IC50 values (substance concentration needed for 50% inhibition of cell proliferation) were calculated therefrom.

[2] = target: T1, BRD4 bromo domain 1 [BRD4(1)] (Homo sapiens, UniProt O60885); assay: BRD4(1)/acetylated peptide H4 binding assay (TR-FRET); settings: inhibition of interaction between His6-tagged BRD4(1) (amino acids 67-152) and acetylated histone H4 peptide
T1 construct: N-terminally His6-tagged BRD4(1) (amino acids 67-152); made in house; host or cells: E. coli
Summary of the method: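 TR-FRET measured displacement of a biotinylated tetra-acetylated H4 peptide from His6-BRD4(1) (aa 67-152, E. coli-expressed, typically 10 nM) in HEPES pH 7.5 buffer. Compounds were tested at 11 concentrations (0.1 nM–20 μM), with 10 min preincubation, then 1 h at 22 °C and ≥3 h at 4 °C. The 665/620 nm ratio gave IC50 by 4-parameter fit.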

[3] = target: T2, BRD4 bromo domain 2 [BRD4(2)] (Homo sapiens, UniProt O60885); assay: BRD4(2)/acetylated peptide H4 binding assay (TR-FRET); settings: inhibition of interaction between His6-tagged BRD4(2) (amino acids 357-445) and acetylated histone H4 peptide
T2 construct: N-terminally His6-tagged BRD4(2) (amino acids 357-445); made in house; host or cells: E. coli
Summary of the method: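 TR-FRET displacement of biotinylated tetra-acetylated H4 peptide from His6-BRD4(2) (aa 357-445, E. coli-expressed), 100 nM final, in HEPES pH 7.5 buffer; 11 compound concentrations 0.1 nM-20 μM, 10 min preincubation, then 1 h 22 °C plus ≥3 h 4 °C. 665/620 ratio read; IC50 by 4-parameter fit.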

Structure (SMILES) | IC50 [1] | IC50 [2] | IC50 [3]
CC(C)N1c2nc(Nc3ccc(C(=O)N4CC5(CCS5(=O)=O)C4)cc3)ccc2N(C)C(=O)[C@H]1C [Example 9, (3R)-6-({4-[(1,1-Dioxido-1-thia-6-azaspiro[3.3]hept-6-yl)carbonyl]phenyl}amino)-4-isopropyl-1,3-dimethyl-3,4-dihydropyrido[2,3-b]pyrazin-2(1H)-one] | 698 nM | 150 nM | 130 nM
COc1cc(C(=O)N2CC3(CCS3(=O)=O)C2)ccc1Nc1ccc2c(n1)N(C1CCCC1)[C@H](C)C(=O)N2C [Example 10, (3R)-4-Cyclopentyl-6-({4-[(1,1-dioxido-1-thia-6-azaspiro[3.3]hept-6-yl)carbonyl]-2-methoxyphenyl}amino)-1,3-dimethyl-3,4-dihydropyrido[2,3-b]pyrazin-2(1H)-one] | 623 nM | 165 nM | 230 nM
C[C@@H]1C(=O)N(C)c2ccc(Nc3ccc(C(=O)NC4CCN(C)CC4)cc3)nc2N1C1CCCC1 [Example 11, 4-{[(3R)-4-Cyclopentyl-1,3-dimethyl-2-oxo-1,2,3,4-tetrahydropyrido[2,3-b]pyrazin-6-yl]amino}-N-(1-methylpiperidin-4-yl)benzamide] | 444 nM | 63 nM | 83 nM
COc1cc(C(=O)NC2CCN(C)CC2)ccc1Nc1ccc2c(n1)N(C1CCOCC1)[C@H](C)C(=O)N2C [Example 13, 4-{[(3R)-1,3-Dimethyl-2-oxo-4-(tetrahydro-2H-pyran-4-yl)-1,2,3,4-tetrahydropyrido[2,3-b]pyrazin-6-yl]amino}-3-methoxy-N-(1-methylpiperidin-4-yl)benzamide] | 212 nM | 114 nM | 113 nM
COc1cc(C(=O)N[C@H]2CC[C@H](N3CCN(CC4CC4)CC3)CC2)ccc1Nc1ccc2c(n1)N(C1CCOCC1)[C@H](C)C(=O)N2C [Example 14, N-{trans-4-[4-(Cyclopropylmethyl)piperazin-1-yl]cyclohexyl}-4-{[(3R)-1,3-dimethyl-2-oxo-4-(tetrahydro-2H-pyran-4-yl)-1,2,3,4-tetrahydropyrido[2,3-b]pyrazin-6-yl]amino}-3-methoxybenzamide] | 233 nM | 149 nM | 108 nM
C[C@@H]1C(=O)N(C)c2ccc(Nc3ccc(S(=O)(=O)N[C@H]4CC[C@H](N5CCN(CC6CC6)CC5)CC4)cc3)nc2N1C1CCOCC1 [Example 15, N-{trans-4-[4-(Cyclopropylmethyl)piperazin-1-yl]cyclohexyl}-4-{[(3R)-1,3-dimethyl-2-oxo-4-(tetrahydro-2H-pyran-4-yl)-1,2,3,4-tetrahydropyrido[2,3-b]pyrazin-6-yl]amino}benzenesulphonamide] | 62 nM | 237 nM | 51 nM
C[C@@H]1C(=O)N(C)c2ccc(Nc3ccc(S(=O)(=O)N4CCOCC4)cc3)nc2N1C1CCOCC1 [Example 18, (3R)-1,3-dimethyl-6-{[4-(morpholin-4-ylsulphonyl)phenyl]amino}-4-(tetrahydro-2H-pyran-4-yl)-3,4-dihydropyrido[2,3-b]pyrazin-2(1H)-one] | 305 nM | 56 nM | 40 nM
C[C@@H]1C(=O)N(C)c2ccc(Nc3ccc(S(=O)(=O)N4CCN(C)CC4)cc3)nc2N1C1CCOCC1 [Example 20, (3R)-1,3-dimethyl-6-({4-[(4-methylpiperazin-1-yl)sulphonyl]phenyl}amino)-4-(tetrahydro-2H-pyran-4-yl)-3,4-dihydropyrido[2,3-b]pyrazin-2(1H)-one] | 445 nM | 154 nM | 96 nM
C[C@@H]1C(=O)N(C)c2ccc(Nc3ccc(S(=O)(=O)N4CCN(C)CC4)cc3F)nc2N1C1CCOCC1 [Example 21, (3R)-6-({2-fluoro-4-[(4-methylpiperazin-1-yl)sulphonyl]phenyl}amino)-1,3-dimethyl-4-(tetrahydro-2H-pyran-4-yl)-3,4-dihydropyrido[2,3-b]pyrazin-2(1H)-one] | 397 nM | 106 nM | 87 nM
C[C@@H]1C(=O)N(C)c2ccc(Nc3ccc(S(=O)(=O)NC4CCN(C)CC4)cc3)nc2N1C1CCOCC1 [Example 22, 4-{[(3R)-1,3-dimethyl-2-oxo-4-(tetrahydro-2H-pyran-4-yl)-1,2,3,4-tetrahydropyrido[2,3-b]pyrazin-6-yl]amino}-N-(1-methylpiperidin-4-yl)benzenesulphonamide] | 203 nM | 52 nM | 53 nM
C[C@@H]1C(=O)N(C)c2ccc(Nc3ccc(S(=O)(=O)NCCN4CCN(C)CC4)cc3)nc2N1C1CCOCC1 [Example 23, 4-{[(3R)-1,3-dimethyl-2-oxo-4-(tetrahydro-2H-pyran-4-yl)-1,2,3,4-tetrahydropyrido[2,3-b]pyrazin-6-yl]amino}-N-[2-(4-methylpiperazin-1-yl)ethyl]benzene-sulponamide] | 358 nM | 46 nM | 65 nM
C[C@@H]1C(=O)N(C)c2ccc(Nc3ccc(S(=O)(=O)NCCN(C)C)cc3)nc2N1C1CCOCC1 [Example 24, N-[2-(dimethylamino)ethyl]-4-{[(3R)-1,3-dimethyl-2-oxo-4-(tetrahydro-2H-pyran-4-yl)-1,2,3,4-tetrahydropyrido[2,3-b]pyrazin-6-yl]amino}benzene-sulphonamide] | 554 nM | 81 nM | 76 nM
C[C@@H]1C(=O)N(C)c2ccc(Nc3ccc(S(=O)(=O)NCc4ccccn4)cc3)nc2N1C1CCOCC1 [Example 25, 4-{[(3R)-1,3-dimethyl-2-oxo-4-(tetrahydro-2H-pyran-4-yl)-1,2,3,4-tetrahydropyrido[2,3-b]pyrazin-6-yl]amino}-N-(pyridin-2-ylmethyl)benzene-sulphonamide] | 388 nM | 50 nM | 94 nM
COc1cc(Nc2ccc3c(n2)N(C2CCOCC2)[C@H](C)C(=O)N3C)ccc1S(=O)(=O)N1CCN(C)CC1 [Example 26, (3R)-6-({3-methoxy-4-[(4-methylpiperazin-1-yl)sulphonyl]phenyl}amino)-1,3-dimethyl-4-(tetrahydro-2H-pyran-4-yl)-3,4-dihydropyrido[2,3-b]pyrazin-2(1H)-one] | 296 nM | 70 nM | 67 nM
C[C@@H]1C(=O)N(C)c2ccc(Nc3ccc(S(=O)(=O)N(C)C)cc3)nc2N1C1CCOCC1 [Example 27, 4-{[(3R)-1,3-dimethyl-2-oxo-4-(tetrahydro-2H-pyran-4-yl)-1,2,3,4-tetrahydropyrido[2,3-b]pyrazin-6-yl]amino}-N,N-dimethylbenzene-sulphonamide] | 202 nM | 32 nM | 38 nM
C[C@@H]1C(=O)N(C)c2ccc(Nc3ccc(C(=O)NC4CN(C)C4)cc3)nc2N1C1CCCCC1 [Example 30, 4-{[(3R)-4-Cyclohexyl-1,3-dimethyl-2-oxo-1,2,3,4-tetrahydropyrido[2,3-b]pyrazin-6-yl]amino}-N-(1-methylazetidin-3-yl)benzamide] | 293 nM | 119 nM | 140 nM
COc1cc(C(=O)N[C@H]2CC[C@H](N3CCN(CC4CC4)CC3)CC2)ccc1Nc1ccc2c(n1)N(Cc1ccccc1)[C@H](C)C(=O)N2C [Example 34, 4-{[(3R)-4-Benzyl-1,3-dimethyl-2-oxo-1,2,3,4-tetrahydropyrido[2,3-b]pyrazin-6-yl]amino}-N-{trans-4-[4-(cyclopropylmethyl)piperazin-1-yl]cyclohexyl}-3-methoxybenzamide] | 338 nM | 256 nM | 104 nM
Cc1cc(C(=O)N[C@H]2CC[C@H](N3CCN(CC4CC4)CC3)CC2)ccc1Nc1ccc2c(n1)N(C1CCOCC1)[C@H](C)C(=O)N2C [Example 37, N-{trans-4-[4-(Cyclopropylmethyl)piperazin-1-yl]cyclohexyl}-4-{[(3R)-1,3-dimethyl-2-oxo-4-(tetrahydro-2H-pyran-4-yl)-1,2,3,4-tetrahydropyrido[2,3-b]pyrazin-6-yl]amino}-3-methylbenzamide] | 859 nM | 347 nM | 306 nM
COc1cc(C(=O)NC2CCC(=O)CC2)ccc1Nc1ccc2c(n1)N(C1CCOCC1)[C@H](C)C(=O)N2C [Example 38, 4-{[(3R)-1,3-Dimethyl-2-oxo-4-(tetrahydro-2H-pyran-4-yl)-1,2,3,4-tetrahydropyrido[2,3-b]pyrazin-6-yl]amino}-3-methoxy-N-(4-oxocyclohexyl)benzamide] | 51 nM | 194 nM | 79 nM
